{"source": "paper PMC6821309", "about": "“Optimization of Insect Odorant Receptor Trafficking and Functional Expression Via Transient Transfection in HEK293 Cells” (Chemical Senses, 2019)", "key": {"[1]": {"target": "T1, Or56a/Orco (pDmelOR-R.E.hOr56a; mRho.V5.mER.hOr56a + hOrco) (Drosophila melanogaster, UniProt Q9V8Y7)", "T1 construct": "human codon-optimized Or56a with N-terminal mRho.V5.mER tag; N-terminal myc-tagged codon-optimized Orco, spliced chimeric intron; bidirectional vector, transient HEK293; with Odorant receptor coreceptor", "T1 sequence (Q9V8Y7 1-419)": "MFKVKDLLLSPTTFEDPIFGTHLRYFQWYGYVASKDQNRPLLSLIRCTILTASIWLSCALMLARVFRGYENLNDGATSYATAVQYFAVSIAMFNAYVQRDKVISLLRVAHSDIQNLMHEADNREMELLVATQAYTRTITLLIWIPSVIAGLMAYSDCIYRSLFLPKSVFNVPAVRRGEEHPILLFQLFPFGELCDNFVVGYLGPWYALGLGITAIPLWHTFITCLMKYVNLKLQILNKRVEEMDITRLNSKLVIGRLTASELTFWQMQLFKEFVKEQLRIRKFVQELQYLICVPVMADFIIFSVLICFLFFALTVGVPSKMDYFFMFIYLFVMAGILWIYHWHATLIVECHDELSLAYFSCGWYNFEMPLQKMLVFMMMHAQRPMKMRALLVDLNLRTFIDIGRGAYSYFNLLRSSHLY", "T1 sequence (Q9VNB5 1-486 partner)": "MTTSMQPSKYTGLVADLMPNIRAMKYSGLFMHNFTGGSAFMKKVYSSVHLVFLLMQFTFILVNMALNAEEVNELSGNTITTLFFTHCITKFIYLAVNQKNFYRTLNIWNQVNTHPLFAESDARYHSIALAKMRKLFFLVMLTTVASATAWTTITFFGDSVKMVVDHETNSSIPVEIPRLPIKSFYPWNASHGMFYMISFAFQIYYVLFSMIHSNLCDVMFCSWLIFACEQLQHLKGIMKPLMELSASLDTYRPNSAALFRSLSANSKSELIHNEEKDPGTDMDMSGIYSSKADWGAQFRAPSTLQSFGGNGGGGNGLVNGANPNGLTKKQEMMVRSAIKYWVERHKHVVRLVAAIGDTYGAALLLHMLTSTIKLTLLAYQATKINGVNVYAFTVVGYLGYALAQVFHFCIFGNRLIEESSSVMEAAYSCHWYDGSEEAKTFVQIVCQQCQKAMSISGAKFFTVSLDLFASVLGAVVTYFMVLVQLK", "assay": "Fura-2 calcium imaging, automated platform, response normalized to VUAA1", "type": "cell-based", "conditions": "agonist; 1 mM CaCl2, pH 7.4; 3-parameter logistic fit; transient HEK293", "excerpt": "Fura-2 calcium imaging, automated platform, response normalized to VUAA1 on Or56a/Orco (pDmelOR-R.E.hOr56a; mRho.V5.mER.hOr56a + hOrco) | or with pDmelOR-R.E.hOr56a and stimulated with geosmin (e)"}, "[2]": {"target": "T2, Or47a/Orco heteromer (pDmelOR-R.E.hOr47a; mRho.V5.mER.hOr47a + hOrco) (Drosophila melanogaster, UniProt P81921)", "T2 construct": "N-terminal myc-tagged codon-optimized Orco, spliced chimeric intron; bidirectional vector, transient HEK293; with Odorant receptor coreceptor", "T2 sequence (P81921 1-385)": "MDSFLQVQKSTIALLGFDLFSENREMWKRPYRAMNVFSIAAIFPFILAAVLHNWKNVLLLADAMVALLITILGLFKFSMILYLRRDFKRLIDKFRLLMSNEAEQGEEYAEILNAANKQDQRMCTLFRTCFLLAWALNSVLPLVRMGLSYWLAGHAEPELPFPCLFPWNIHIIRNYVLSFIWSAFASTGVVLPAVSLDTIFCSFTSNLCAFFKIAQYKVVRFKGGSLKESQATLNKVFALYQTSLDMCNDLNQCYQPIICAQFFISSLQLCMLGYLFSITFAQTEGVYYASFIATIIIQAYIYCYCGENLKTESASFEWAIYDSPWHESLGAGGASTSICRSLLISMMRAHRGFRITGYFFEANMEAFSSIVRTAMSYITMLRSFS", "T2 sequence (Q9VNB5 1-486 partner)": "T1 sequence (Q9VNB5 1-486 partner)", "assay": "Fura-2 calcium imaging, automated platform, response normalized to VUAA1", "type": "cell-based", "conditions": "agonist; 1 mM CaCl2, pH 7.4; 3-parameter logistic fit; transient HEK293", "excerpt": "Fura-2 calcium imaging, automated platform, response normalized to VUAA1 on Or47a/Orco heteromer (pDmelOR-R.E.hOr47a; mRho.V5.mER.hOr47a + hOrco) | transfected with pDmelOR-R.E.hOr47a and stimulated with pentyl acetate (d)"}}, "data": [{"smiles": "CC1CCCC2(C)CCCCC12O", "note": "(racemic) [geosmin]", "values": [{"measurement": "EC50", "setting": "[1]", "result": "7.19·10^–7 (3.97 × 10^–7; 1.30 × 10^–6) M"}]}, {"smiles": "CCCCCOC(C)=O", "note": "[pentyl acetate]", "values": [{"measurement": "EC50", "setting": "[2]", "result": "2.45·10^–5 (1.83 × 10^–5; 3.29 × 10^–5) M"}]}]}
